# Experimental data: patent publication US20210221866A1, “PROTEASE-RESISTANT LIPIDATED GLP-1 ANALOGS” (MEDIMMUNE LIMITED, priority 2015, published 2021)
# Where two headings read alike, the source gives them in different places. Numbered stars: 1 amine (or outer) side, 2 acyl side, 3 side chain; on linkers, the order of the positions; unused ones are H or OH. Square brackets hold non-standard residues; d marks the D form. Side chains are listed from the residue outwards. Peptide text beside a SMILES is read from it. * marks the point of attachment. C18 diacid = O=C(O)CCCCCCCCCCCCCCCCC(=O)*; γGlu = O=C(O)[C@H](CCC(=O)[*:2])N[*:1]; αMeF = C[C@](N)(Cc1ccccc1)C(=O)O; αMeK = C[C@](N)(CCCCN)C(=O)O; Lauroyl = CCCCCCCCCCCC(=O)*; αMeS = C[C@](N)(CO)C(=O)O; AEEA = NCCOCCOCC(=O)O; Aib = CC(C)(N)C(=O)O
# Tests used:
# Type in all cases: cell-based
# [1] = molecular target: T1, human glucose-dependent insulinotropic peptide receptor (GIPR) (Homo sapiens, UniProt P48546); test: cAMP assay, human GIPR cells
# T1 construct: expressed in transfected cells; host or cells: HEK293 cells or CHO cells
# T1 sequence (P48546 22-466): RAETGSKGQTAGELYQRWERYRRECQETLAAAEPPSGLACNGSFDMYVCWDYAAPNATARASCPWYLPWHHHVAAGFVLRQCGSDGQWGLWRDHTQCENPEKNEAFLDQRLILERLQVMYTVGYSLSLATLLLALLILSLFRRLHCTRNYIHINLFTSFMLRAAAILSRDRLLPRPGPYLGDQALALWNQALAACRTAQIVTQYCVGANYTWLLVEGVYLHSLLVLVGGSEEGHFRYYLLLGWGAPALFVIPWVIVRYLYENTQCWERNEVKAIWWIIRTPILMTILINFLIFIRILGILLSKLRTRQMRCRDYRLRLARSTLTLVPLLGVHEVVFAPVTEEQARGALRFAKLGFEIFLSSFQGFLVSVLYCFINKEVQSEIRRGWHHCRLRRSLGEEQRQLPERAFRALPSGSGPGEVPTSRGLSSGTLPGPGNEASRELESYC
# Procedure, shortened: (§1)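 Peptide-stimulated cAMP measured by two-step HTRF after a 30 min room-temperature incubation with receptor-expressing cells (hGLP-1R, hGIPR at 1×10^5 cells/ml; hGCGR at 2×10^5 cells/ml). Duplicate dilutions; EC50 from 4-parameter logistic fit of % Delta F.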
# [2] = molecular target: T2, human glucagon receptor (GCGR) (Homo sapiens, UniProt P47871); test: cAMP assay, human GCGR cells
# T2 construct: expressed in transfected cells; host or cells: HEK293 cells or CHO cells
# Procedure, shortened: as §1
# [3] = molecular target: T3, GLP-1R (INS1e cells) (Rattus norvegicus, UniProt P32301); test: INS1e assay, cAMP activity at GLP-1R
# T3 construct: endogenous in cells; host or cells: INS1e cells
# T3 sequence (P32301 22-463): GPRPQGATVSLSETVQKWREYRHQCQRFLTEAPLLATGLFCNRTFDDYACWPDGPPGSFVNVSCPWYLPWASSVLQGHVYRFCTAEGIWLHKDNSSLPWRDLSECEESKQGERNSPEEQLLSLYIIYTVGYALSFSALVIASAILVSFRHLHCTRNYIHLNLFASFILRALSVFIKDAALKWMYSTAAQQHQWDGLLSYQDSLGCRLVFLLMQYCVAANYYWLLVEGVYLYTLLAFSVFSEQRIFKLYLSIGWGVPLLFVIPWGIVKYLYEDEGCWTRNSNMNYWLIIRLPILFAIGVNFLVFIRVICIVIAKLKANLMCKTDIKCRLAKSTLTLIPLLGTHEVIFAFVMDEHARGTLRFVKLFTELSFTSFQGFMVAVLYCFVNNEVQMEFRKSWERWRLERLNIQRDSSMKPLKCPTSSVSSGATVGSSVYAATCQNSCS
# [4] = molecular target: T4, human GLP-1 receptor (GLP-1R) (Homo sapiens, UniProt P43220); test: cAMP assay, human GLP-1R cells; details: cAMP activity
# T4 construct: expressed in transfected cells; host or cells: HEK293 cells or CHO cells
# Procedure, shortened: as §1
# [5] = cAMP activity, first determination (n1), read-out: Primary assay EC50 GIP-R
# [6] = cAMP activity, second determination (n2), read-out: Primary assay EC50 GIP-R
# [7] = cAMP activity, second determination (n2), read-out: Primary assay EC50 Gluc-R
# [8] = Table 8, substituted and mono-lipidated peptides, mean of n1 and n2, read-out: INS1e assay EC50 Mean pM GLP-1R
# [9] = Table 8, substituted and mono-lipidated peptides, replicate n1, read-out: INS1e assay EC50 GLP-1R n1
# [10] = Table 8, substituted and mono-lipidated peptides, replicate n2, read-out: INS1e assay EC50 GLP-1R n2
# [11] = first determination (n1), read-out: Primary assay EC50 GLP-1R n1
# [12] = mean of n1 and n2, read-out: Mean pM GLP-1R
# [13] = second determination (n2), read-out: Primary assay EC50 GLP-1R n2
# T4 sequence (P43220 24-463): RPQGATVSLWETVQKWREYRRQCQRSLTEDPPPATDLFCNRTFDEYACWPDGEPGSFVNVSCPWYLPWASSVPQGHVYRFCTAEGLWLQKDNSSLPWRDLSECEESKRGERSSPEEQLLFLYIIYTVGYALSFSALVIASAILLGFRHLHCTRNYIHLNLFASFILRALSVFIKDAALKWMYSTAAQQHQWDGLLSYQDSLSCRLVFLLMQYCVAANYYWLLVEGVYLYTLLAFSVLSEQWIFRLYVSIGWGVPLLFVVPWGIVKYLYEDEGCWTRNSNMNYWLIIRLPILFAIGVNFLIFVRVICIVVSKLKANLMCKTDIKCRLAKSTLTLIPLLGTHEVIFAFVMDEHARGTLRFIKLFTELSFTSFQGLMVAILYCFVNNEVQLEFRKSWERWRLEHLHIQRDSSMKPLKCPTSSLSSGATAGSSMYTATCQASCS
# T2 sequence (P47871 26-477): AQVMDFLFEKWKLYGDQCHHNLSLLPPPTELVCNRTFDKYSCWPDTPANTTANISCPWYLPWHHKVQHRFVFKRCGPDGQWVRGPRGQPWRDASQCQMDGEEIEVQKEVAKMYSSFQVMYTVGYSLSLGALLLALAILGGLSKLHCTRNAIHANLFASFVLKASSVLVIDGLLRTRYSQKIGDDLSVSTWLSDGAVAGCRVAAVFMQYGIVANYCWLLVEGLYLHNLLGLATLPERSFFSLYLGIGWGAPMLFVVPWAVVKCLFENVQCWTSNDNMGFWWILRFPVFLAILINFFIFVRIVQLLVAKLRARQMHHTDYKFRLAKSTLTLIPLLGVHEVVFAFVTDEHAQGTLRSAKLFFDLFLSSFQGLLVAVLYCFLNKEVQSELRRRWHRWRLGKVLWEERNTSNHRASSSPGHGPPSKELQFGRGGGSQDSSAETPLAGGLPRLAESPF
Structure (SMILES),"EC50 [1, 5] [nM]","EC50 [1, 6] [nM]","EC50 [2, 7] [nM]","EC50 [3, 8] [pM]","EC50 [3, 9] [pM]","EC50 [3, 10] [pM]","EC50 [4, 11] [pM]","EC50 [4, 12] [pM]","EC50 [4, 13] [pM]","EC50 ([1]; Table 9, bis-lipidated peptides, first replicate, read-out: Primary assay EC50 GIP-R (n1)) [nM]","EC50 ([1]; Table 9, bis-lipidated peptides, second replicate, read-out: Primary assay EC50 GIP-R (n2)) [nM]","EC50 ([2]; Table 9, bis-lipidated peptides, first replicate, read-out: Primary assay EC50 Gluc-R (n1)) [nM]","EC50 ([2]; Table 9, bis-lipidated peptides, second replicate, read-out: Primary assay EC50 Gluc-R (n2)) [nM]","EC50 ([3]; Table 10, bis-lipidated peptides, mean of n1 and n2, read-out: INS1e assay EC50 Mean pM GLP-1R) [pM]"
CC[C@H](C)[C@H](NC(=O)[C@](C)(Cc1ccccc1)NC(=O)[C@H](CCC(=O)O)NC(=O)[C@H](CCCCNC(=O)COCCOCCNC(=O)COCCOCCNC(=O)CC[C@H](NC(=O)CCCCCCCCCCCCCCCCC(=O)O)C(=O)O)NC(=O)[C@H](C)NC(=O)[C@H](C)NC(=O)[C@H](CCC(=O)O)NC(=O)CNC(=O)[C@H](CCC(=O)O)NC(=O)[C@H](CC(C)C)NC(=O)[C@](C)(Cc1ccccc1)NC(=O)[C@H](CO)NC(=O)[C@](C)(CO)NC(=O)[C@@H](NC(=O)[C@H](CC(=O)O)NC(=O)[C@H](CO)NC(=O)[C@@H](NC(=O)[C@](C)(Cc1ccccc1)NC(=O)[C@H](CO)NC(=O)CNC(=O)[C@H](CCC(=O)O)NC(=O)C(C)(C)NC(=O)[C@@H](N)Cc1c[nH]cn1)[C@@H](C)O)C(C)C)C(=O)N[C@@H](C)C(=O)N[C@@H](Cc1c[nH]c2ccccc12)C(=O)N[C@H](C(=O)N[C@H](C(=O)N[C@@](C)(CCCCN)C(=O)NCC(=O)NCC(N)=O)C(C)C)C(C)C [compound 49] (H-H[Aib]EGS[αMeF]TSDV[αMeS]S[αMeF]LEGEAAK([AEEA-AEEA-γGlu-C18 diacid])E[αMeF]IAWVV[αMeK]GG-NH2; N-terminus assumed),≥ 25,≥ 25,≥ 25,10000,9350,10700,96,124,150,–,–,–,–,–
CC[C@H](C)[C@H](NC(=O)[C@](C)(Cc1ccccc1)NC(=O)[C@H](CCC(=O)O)NC(=O)[C@](C)(CCCCN)NC(=O)[C@H](C)NC(=O)[C@H](C)NC(=O)[C@H](CCC(=O)O)NC(=O)CNC(=O)[C@H](CCC(=O)O)NC(=O)[C@H](CCCCNC(=O)COCCOCCNC(=O)COCCOCCNC(=O)CC[C@H](NC(=O)CCCCCCCCCCCCCCCCC(=O)O)C(=O)O)NC(=O)[C@](C)(Cc1ccccc1)NC(=O)[C@H](CO)NC(=O)[C@](C)(CO)NC(=O)[C@@H](NC(=O)[C@H](CC(=O)O)NC(=O)[C@H](CO)NC(=O)[C@@H](NC(=O)[C@](C)(Cc1ccccc1)NC(=O)[C@H](CO)NC(=O)CNC(=O)[C@H](CCC(=O)O)NC(=O)C(C)(C)NC(=O)[C@@H](N)Cc1c[nH]cn1)[C@@H](C)O)C(C)C)C(=O)N[C@@H](C)C(=O)N[C@@](C)(Cc1ccccc1)C(=O)N[C@H](C(=O)N[C@H](C(=O)N[C@@](C)(CCCCN)C(=O)NCC(=O)NCC(N)=O)C(C)C)C(C)C [compound 115] (H-H[Aib]EGS[αMeF]TSDV[αMeS]S[αMeF]K([AEEA-AEEA-γGlu-C18 diacid])EGEAA[αMeK]E[αMeF]IA[αMeF]VV[αMeK]GG-NH2),≥ 25,≥ 25.3,≥ 25.3,544,593,494,6,6,5.39,–,–,–,–,–
CC[C@H](C)[C@H](NC(=O)[C@](C)(Cc1ccccc1)NC(=O)[C@H](CCC(=O)O)NC(=O)[C@H](CCCCNC(=O)COCCOCCNC(=O)COCCOCCNC(=O)CC[C@H](NC(=O)CCCCCCCCCCCCCCCCC(=O)O)C(=O)O)NC(=O)[C@H](C)NC(=O)[C@H](C)NC(=O)[C@H](CCC(=O)O)NC(=O)CNC(=O)[C@H](CCC(=O)O)NC(=O)[C@H](CC(C)C)NC(=O)[C@H](Cc1ccc(O)cc1)NC(=O)[C@H](CO)NC(=O)[C@](C)(CO)NC(=O)[C@@H](NC(=O)[C@H](CC(=O)O)NC(=O)[C@H](CO)NC(=O)[C@@H](NC(=O)[C@](C)(Cc1ccccc1)NC(=O)[C@H](CO)NC(=O)CNC(=O)[C@H](CCC(=O)O)NC(=O)C(C)(C)NC(=O)[C@@H](N)Cc1c[nH]cn1)[C@@H](C)O)C(C)C)C(=O)N[C@@H](C)C(=O)N[C@@](C)(Cc1ccccc1)C(=O)N[C@H](C(=O)N[C@H](C(=O)N[C@@](C)(CCCCN)C(=O)NCC(=O)NCC(N)=O)C(C)C)C(C)C [compound 47] (H-H[Aib]EGS[αMeF]TSDV[αMeS]SYLEGEAAK([AEEA-AEEA-γGlu-C18 diacid])E[αMeF]IA[αMeF]VV[αMeK]GG-NH2; N-terminus assumed),≥ 25,≥ 25,≥ 25,9670,7130,12200,37,43.3,50,–,–,–,–,–
CC[C@H](C)[C@H](NC(=O)[C@](C)(Cc1ccccc1)NC(=O)[C@H](CCC(=O)O)NC(=O)[C@](C)(CCCCN)NC(=O)[C@H](C)NC(=O)[C@H](C)NC(=O)[C@H](CCC(=O)O)NC(=O)CNC(=O)[C@H](CCC(=O)O)NC(=O)[C@H](CC(C)C)NC(=O)[C@](C)(Cc1ccccc1)NC(=O)[C@H](CO)NC(=O)[C@](C)(CO)NC(=O)[C@@H](NC(=O)[C@H](CC(=O)O)NC(=O)[C@H](CO)NC(=O)[C@@H](NC(=O)[C@](C)(Cc1ccccc1)NC(=O)[C@H](CO)NC(=O)CNC(=O)[C@H](CCC(=O)O)NC(=O)C(C)(C)NC(=O)[C@@H](N)Cc1c[nH]cn1)[C@@H](C)O)C(C)C)C(=O)N[C@@H](C)C(=O)N[C@@](C)(Cc1ccccc1)C(=O)N[C@H](C(=O)N[C@@H](CCCCNC(=O)COCCOCCNC(=O)COCCOCCNC(=O)CC[C@H](NC(=O)CCCCCCCCCCCCCCCCC(=O)O)C(=O)O)C(=O)N[C@@](C)(CCCCN)C(=O)NCC(=O)NCC(N)=O)C(C)C [compound 102] (H-H[Aib]EGS[αMeF]TSDV[αMeS]S[αMeF]LEGEAA[αMeK]E[αMeF]IA[αMeF]VK([AEEA-AEEA-γGlu-C18 diacid])[αMeK]GG-NH2),≥ 25,≥ 25.2,≥ 25.2,3560,4220,2890,24,22,20.6,–,–,–,–,–
CCCCCCCCCCCC(=O)N[C@@H](CCC(=O)NCCOCCOCC(=O)NCCOCCOCC(=O)NCCCC[C@H](NC(=O)[C@H](CC(=O)O)NC(=O)[C@H](CO)NC(=O)[C@@H](NC(=O)[C@](C)(Cc1ccccc1)NC(=O)[C@H](CO)NC(=O)CNC(=O)[C@H](CCC(=O)O)NC(=O)C(C)(C)NC(=O)[C@@H](N)Cc1c[nH]cn1)[C@@H](C)O)C(=O)N[C@@H](CO)C(=O)N[C@@H](CO)C(=O)N[C@@H](Cc1ccc(O)cc1)C(=O)N[C@@H](CC(C)C)C(=O)N[C@@H](CCC(=O)O)C(=O)NCC(=O)N[C@@H](CCC(=O)O)C(=O)N[C@@H](C)C(=O)N[C@@H](C)C(=O)N[C@@](C)(CCCCN)C(=O)N[C@@H](CCC(=O)O)C(=O)N[C@@H](Cc1ccccc1)C(=O)N[C@H](C(=O)N[C@@H](CCCCNC(=O)COCCOCCNC(=O)COCCOCCNC(=O)CC[C@H](NC(=O)CCCCCCCCCCC)C(=O)O)C(=O)N[C@@H](Cc1c[nH]c2ccccc12)C(=O)N[C@H](C(=O)N[C@H](C(=O)N[C@@H](CCC(=O)O)C(=O)NCC(=O)NCC(N)=O)C(C)C)C(C)C)[C@@H](C)CC)C(=O)O [compound 256] (H-H[Aib]EGS[αMeF]TSDK([AEEA-AEEA-γGlu-Lauroyl])SSYLEGEAA[αMeK]EFIK([AEEA-AEEA-γGlu-Lauroyl])WVVEGG-NH2; N-terminus assumed),–,–,–,–,–,–,–,–,–,≥ 22.2,≥ 22.2,≥ 22.2,≥ 22.2,1300
